Here are results for 32 molecules from ChEMBL document CHEMBL3880441, “Irreversible covalent inhibitors of the GTPASE K-RAS G12C” (2014).

The assay has as its system GTPase KRas (Homo sapiens), P01116 [G12C]. As to the kind of experiment: Binding affinity to His-tagged KRAS (1 to 169 residues) G12C mutant (unknown origin) at 10 to 100 uM after 24 hrs by mass spectrometric method.
In turn, `C=CS(=O)(=O)NCCNc1cccc2ccccc12` yielded an Activity of 10 to 15%.

For the molecule `C=Cc1cccc(S(=O)(=O)NC[C@H]2C[C@@H]3O[C@H](COCc4ccccc4)[C@@H](OCc4ccccc4)[C@@H]3O2)c1`, the Activity lay within 5 to 10%. `C=Cc1cccc(S(=O)(=O)NC[C@@H]2C[C@@H]3O[C@H](CO)[C@@H](OCc4ccccc4)[C@@H]3O2)c1` had an Activity of 10 to 15%. Under `C=CS(=O)(=O)NCCOc1ccc2ccccc2c1` stands 10 to 15%.

The molecule `C=CS(=O)(=O)NC[C@H]1C[C@@H]2O[C@H](COCc3ccccc3)[C@@H](OCc3ccccc3)[C@@H]2O1` registered an Activity of 10 to 15%.

Turning to `C=Cc1ccc(S(=O)(=O)NC[C@@H]2C[C@@H]3O[C@H](CO)[C@@H](OCc4ccccc4)[C@@H]3O2)cc1`, the Activity was in the range of 5 to 10%. Next, `C=Cc1ccccc1S(=O)(=O)NCCOc1ccc2ccccc2c1`: 5 to 10%; `C=Cc1ccc(S(=O)(=O)NC[C@H]2C[C@@H]3O[C@H](COCc4ccccc4)[C@@H](OCc4ccccc4)[C@@H]3O2)cc1`: greater than 15%; `C=Cc1ccccc1S(=O)(=O)NC[C@@H]1C[C@@H]2O[C@H](COCc3ccccc3)[C@@H](OCc3ccccc3)[C@@H]2O1`: 10 to 15%.

As for `C=CS(=O)(=O)NC[C@H]1C[C@@H]2O[C@H](CO)[C@@H](OCc3ccccc3)[C@@H]2O1`, the Activity lay within 5 to 10%.

In turn, `C=Cc1ccc(S(=O)(=O)NC[C@H]2C[C@@H]3O[C@H](CO)[C@@H](OCc4ccccc4)[C@@H]3O2)cc1` returned an Activity of 10 to 15%. Molecule `C=CS(=O)(=O)NCCNc1ccc2ccccc2c1` had an Activity of 5 to 10%. Next, `C=Cc1ccccc1S(=O)(=O)NCCOc1cccc2ccccc12`: 10 to 15%; `C=Cc1ccc(S(=O)(=O)NCCNc2cccc3ccccc23)cc1`: 10 to 15%. Next, `C=CS(=O)(=O)NCCOc1cccc2ccccc12`: 10 to 15%.

Turning to `C=Cc1ccccc1S(=O)(=O)NCCNc1ccc2ccccc2c1`, the Activity lay within 10 to 15%. Under `C=Cc1ccc(S(=O)(=O)NCCNc2ccc3ccccc3c2)cc1` stands 5 to 10%; under `C=CC(=O)NC[C@@H]1C[C@@H]2O[C@H](CO)[C@@H](OCc3ccccc3)[C@@H]2O1`, 0.5 to 5%.

In turn, `C=CS(=O)(=O)NC[C@@H]1C[C@@H]2O[C@H](COCc3ccccc3)[C@@H](OCc3ccccc3)[C@@H]2O1` came in with an Activity of 10 to 15%. Next, `C=CC(=O)NC[C@@H]1C[C@@H]2O[C@H](COCc3ccccc3)[C@@H](OCc3ccccc3)[C@@H]2O1`: 0.5 to 5%.

`C=Cc1ccc(S(=O)(=O)NC[C@@H]2C[C@@H]3O[C@H](COCc4ccccc4)[C@@H](OCc4ccccc4)[C@@H]3O2)cc1` came in with an Activity of 10 to 15%. The molecule `C=Cc1cccc(S(=O)(=O)NCCOc2cccc3ccccc23)c1` displayed an Activity of 5 to 10%.

Take `C=CC(=O)NC[C@H]1C[C@@H]2O[C@H](COCc3ccccc3)[C@@H](OCc3ccccc3)[C@@H]2O1`: the Activity lay within 0.5 to 5%. Next, `C=Cc1ccccc1S(=O)(=O)NCCNc1cccc2ccccc12`: greater than 15%; `C=Cc1cccc(S(=O)(=O)NCCOc2ccc3ccccc3c2)c1`: 10 to 15%.

`C=Cc1ccccc1S(=O)(=O)NC[C@@H]1C[C@@H]2O[C@H](CO)[C@@H](OCc3ccccc3)[C@@H]2O1` came in with an Activity greater than 15%. Next, `C=Cc1ccc(S(=O)(=O)NCCOc2ccc3ccccc3c2)cc1`: 10 to 15%. Next, `C=Cc1ccccc1S(=O)(=O)NC[C@H]1C[C@@H]2O[C@H](CO)[C@@H](OCc3ccccc3)[C@@H]2O1`: 10 to 15%. For `C=Cc1cccc(S(=O)(=O)NC[C@@H]2C[C@@H]3O[C@H](COCc4ccccc4)[C@@H](OCc4ccccc4)[C@@H]3O2)c1`, the Activity was greater than 15%. `C=CC(=O)NC[C@H]1C[C@@H]2O[C@H](CO)[C@@H](OCc3ccccc3)[C@@H]2O1` returned an Activity of 0.5 to 5%. On to `C=Cc1cccc(S(=O)(=O)NC[C@H]2C[C@@H]3O[C@H](CO)[C@@H](OCc4ccccc4)[C@@H]3O2)c1`, for which the Activity fell in the range of 5 to 10%.

In turn, `C=Cc1ccccc1S(=O)(=O)NC[C@H]1C[C@@H]2O[C@H](COCc3ccccc3)[C@@H](OCc3ccccc3)[C@@H]2O1` gave an Activity of 10 to 15%.
